Assay results reported in patent publication US11673891B2, “Imidazopyrimidine compounds and uses thereof” (Dana-Farber Cancer Institute, Inc., priority 2017, dated 2023).

Test system: human adult PBMCs
Assay: TNF production by ELISA after stimulation of human adult PBMCs
Format: cell-based
Conditions: adult PBMCs, 33 μM, 18 hours, ELISA; median, N=3-5; unit not given (FIG. 6B/7B legends: TNF concentration in ng/ml)
Description: Table 1. Activity of Exemplary Imidazopyrimidine Compounds on Stimulating TNF Production in PBMCs as Compared to Compound R848 Table 1 provides the activity of exemplary compounds on stimulating TNF production in PBMCs as compared to the benchmark compound R848. Specifically, TNF production was measured by ELISA after stimulation of adult PBMCs with compound 037 analog family or the compound R848 at 33 μM for 18 hours. Analogs are ranked top to bottom by median percentage TNF production (TNF %) as compared to R848 (N=3-5). The compounds have been classified in the following categories according to TNF %: high activity—class A: TNF %>15%; medium activity—class B: 1%<TNF %≤15%; low activity—class C: TNF %≤1%.
ELISAs and Multiplex-Analyte Assays. Supernatants derived from human PBMCs and DC stimulations were assayed by ELISA for TNF (ThermoFisher Scientific; Waltham, Mass., USA). Cytokine and chemokine expression profiles (e.g., IFNγ, IL-9, IL-10, IL-12 (p70), IL-13, IL-1β, IL-23, IL-27, IL-28A, IL-33, IL-6, MIP-3α/CCL20, and TNF) in cell culture supernatants were measured using a customized Milliplex® Human Th17 Magnetic Bead Panel according to the manufacturer's instructions (Millipore, Chicago, Ill., USA). Assays were read and analyzed on the Luminex® 100/200™ System and xPOTENT® software (Luminex, Austin, Tex.). A minimum threshold was set at the minimum detectable concentration for each individual assay, defined as three standard deviations above the mean background.
PBMCs were isolated from blood using a Ficoll density gradient. PBMCs either used fresh or were stored at 5×10^7 cells per vial in 1 mL RPMI containing 20% autologous plasma and 10% DMSO at −80° C. until use. Stimulation plates were prepared by transferring 0.66 μl of DMSO-dissolved compounds (10 mM) to each well of a round bottom 96-well plate. PBMCs isolated from human adult donors were resuspended at a concentration of 10^5 cells/200 μl of RPMI supplemented with 10% of platelet-poor plasma. 200 μl of the cell suspension were transferred to each well resulting in a final compound concentration of […]. After about 18 hours of incubation (37° C., 5% CO2), plates were spun down (500×g, room temperature, 5 minutes) and supernatants were harvested for further analysis.

SMILES	TNF (Median)
Cc1ccc(-c2cn3cccnc3n2)cc1NC(=O)c1ccccc1Br [Example 37.16]	3.5625
Cc1ccc(-c2cn3cccnc3n2)cc1NC(=O)c1ccccc1C [Example 37.17]	0.865
Cc1ccc(-c2cn3cccnc3n2)cc1NC(=O)c1ccccc1Cl [Example 37.33]	0.288
Cc1ccc(-c2cn3cccnc3n2)cc1NC(=O)c1ccccc1C(F)(F)F [Example 37.37]	3.73
Cc1ccc(-c2cn3cccnc3n2)cc1NC(=O)Cc1ccccc1 [FRF-02-103]	0.008
Cc1ccc(-c2cn3cc(F)cnc3n2)cc1NC(=O)c1ccccc1Cl [FRF-02-115]	0.0625
Cc1ccc(-c2cn3cc(F)cnc3n2)cc1NC(=O)c1ccccc1Br [FRF-02-116]	0.594
Cc1ccc(-c2cn3cc(F)cnc3n2)cc1NC(=O)c1ccccc1C [FRF-02-117]	0.138
Cc1ccc(-c2cn3cc(F)cnc3n2)cc1NC(=O)c1ccccc1C(F)(F)F [FRF-02-118]	1.8795
CCC(C(=O)Nc1cc(-c2cn3cc(F)cnc3n2)ccc1C)c1ccccc1 (stereo not drawn) [FRF-02-119, N-(5-(6-Fluoroimidazo[1,2-a]pyrimidin-2-yl)-2-methylphenyl)-2-phenylbutanamide]	0.219
COc1cnc2nc(-c3ccc(C)c(NC(=O)c4ccccc4Cl)c3)cn2c1 [FRF-02-131]	0.008
COc1cnc2nc(-c3ccc(C)c(NC(=O)c4ccccc4Br)c3)cn2c1 [FRF-02-132]	0.008
COc1cnc2nc(-c3ccc(C)c(NC(=O)c4ccccc4C)c3)cn2c1 [FRF-02-134]	0.008
COc1cnc2nc(-c3ccc(C)c(NC(=O)c4ccccc4C(F)(F)F)c3)cn2c1 [FRF-02-135]	0.0705
CCC(C(=O)Nc1cc(-c2cn3cc(OC)cnc3n2)ccc1C)c1ccccc1 (stereo not drawn) [FRF-02-137]	0.04
CCC(C(=O)Nc1cc(-c2cn3cc(C)cnc3n2)ccc1C)c1ccccc1 (stereo not drawn) [FRF-02-144-1, N-(2-Methyl-5-(6-methylimidazo[1,2-a]pyrimidin-2-yl)phenyl)-2-phenylbutanamide]	3.144
Cc1cnc2nc(-c3ccc(C)c(NC(=O)c4ccccc4Cl)c3)cn2c1 [FRF-02-144-2]	2.5245

Same assay, conditions: class according to TNF % as compared to R848; adult PBMCs, 33 μM, 18 hours

SMILES	Activity class
Cc1ccc(-c2cn3cccnc3n2)cc1NC(=O)c1ccccc1Br [Example 37.16]	A (high activity—class A: TNF %>15%)
Cc1ccc(-c2cn3cccnc3n2)cc1NC(=O)c1ccccc1C [Example 37.17]	A (high activity—class A: TNF %>15%)
Cc1ccc(-c2cn3cccnc3n2)cc1NC(=O)c1ccccc1Cl [Example 37.33]	A (high activity—class A: TNF %>15%)
Cc1ccc(-c2cn3cccnc3n2)cc1NC(=O)c1ccccc1C(F)(F)F [Example 37.37]	A (high activity—class A: TNF %>15%)
Cc1ccc(-c2cn3cccnc3n2)cc1NC(=O)Cc1ccccc1 [FRF-02-103]	C (low activity—class C: TNF %≤1%)
Cc1ccc(-c2cn3cc(F)cnc3n2)cc1NC(=O)c1ccccc1Cl [FRF-02-115]	B (medium activity—class B: 1%<TNF %≤15%)
Cc1ccc(-c2cn3cc(F)cnc3n2)cc1NC(=O)c1ccccc1Br [FRF-02-116]	B (medium activity—class B: 1%<TNF %≤15%)
Cc1ccc(-c2cn3cc(F)cnc3n2)cc1NC(=O)c1ccccc1C [FRF-02-117]	B (medium activity—class B: 1%<TNF %≤15%)
Cc1ccc(-c2cn3cc(F)cnc3n2)cc1NC(=O)c1ccccc1C(F)(F)F [FRF-02-118]	A (high activity—class A: TNF %>15%)
CCC(C(=O)Nc1cc(-c2cn3cc(F)cnc3n2)ccc1C)c1ccccc1 (stereo not drawn) [FRF-02-119, N-(5-(6-Fluoroimidazo[1,2-a]pyrimidin-2-yl)-2-methylphenyl)-2-phenylbutanamide]	B (medium activity—class B: 1%<TNF %≤15%)
COc1cnc2nc(-c3ccc(C)c(NC(=O)c4ccccc4Cl)c3)cn2c1 [FRF-02-131]	C (low activity—class C: TNF %≤1%)
COc1cnc2nc(-c3ccc(C)c(NC(=O)c4ccccc4Br)c3)cn2c1 [FRF-02-132]	C (low activity—class C: TNF %≤1%)
COc1cnc2nc(-c3ccc(C)c(NC(=O)c4ccccc4C)c3)cn2c1 [FRF-02-134]	C (low activity—class C: TNF %≤1%)
COc1cnc2nc(-c3ccc(C)c(NC(=O)c4ccccc4C(F)(F)F)c3)cn2c1 [FRF-02-135]	B (medium activity—class B: 1%<TNF %≤15%)
CCC(C(=O)Nc1cc(-c2cn3cc(OC)cnc3n2)ccc1C)c1ccccc1 (stereo not drawn) [FRF-02-137]	B (medium activity—class B: 1%<TNF %≤15%)
CCC(C(=O)Nc1cc(-c2cn3cc(C)cnc3n2)ccc1C)c1ccccc1 (stereo not drawn) [FRF-02-144-1, N-(2-Methyl-5-(6-methylimidazo[1,2-a]pyrimidin-2-yl)phenyl)-2-phenylbutanamide]	A (high activity—class A: TNF %>15%)
Cc1cnc2nc(-c3ccc(C)c(NC(=O)c4ccccc4Cl)c3)cn2c1 [FRF-02-144-2]	A (high activity—class A: TNF %>15%)

Same assay, conditions: median percentage TNF production as compared to R848; adult PBMCs, 33 μM, 18 hours, N=3-5

SMILES	TNF % (Median) [%]
Cc1ccc(-c2cn3cccnc3n2)cc1NC(=O)c1ccccc1Br [Example 37.16]	90.17
Cc1ccc(-c2cn3cccnc3n2)cc1NC(=O)c1ccccc1C [Example 37.17]	20.64
Cc1ccc(-c2cn3cccnc3n2)cc1NC(=O)c1ccccc1Cl [Example 37.33]	22.94
Cc1ccc(-c2cn3cccnc3n2)cc1NC(=O)c1ccccc1C(F)(F)F [Example 37.37]	71.12
Cc1ccc(-c2cn3cccnc3n2)cc1NC(=O)Cc1ccccc1 [FRF-02-103]	0.18
Cc1ccc(-c2cn3cc(F)cnc3n2)cc1NC(=O)c1ccccc1Cl [FRF-02-115]	2.42
Cc1ccc(-c2cn3cc(F)cnc3n2)cc1NC(=O)c1ccccc1Br [FRF-02-116]	8.48
Cc1ccc(-c2cn3cc(F)cnc3n2)cc1NC(=O)c1ccccc1C [FRF-02-117]	3.06
Cc1ccc(-c2cn3cc(F)cnc3n2)cc1NC(=O)c1ccccc1C(F)(F)F [FRF-02-118]	43.53
CCC(C(=O)Nc1cc(-c2cn3cc(F)cnc3n2)ccc1C)c1ccccc1 (stereo not drawn) [FRF-02-119, N-(5-(6-Fluoroimidazo[1,2-a]pyrimidin-2-yl)-2-methylphenyl)-2-phenylbutanamide]	4.35
COc1cnc2nc(-c3ccc(C)c(NC(=O)c4ccccc4Cl)c3)cn2c1 [FRF-02-131]	0.18
COc1cnc2nc(-c3ccc(C)c(NC(=O)c4ccccc4Br)c3)cn2c1 [FRF-02-132]	0.18
COc1cnc2nc(-c3ccc(C)c(NC(=O)c4ccccc4C)c3)cn2c1 [FRF-02-134]	0.18
COc1cnc2nc(-c3ccc(C)c(NC(=O)c4ccccc4C(F)(F)F)c3)cn2c1 [FRF-02-135]	1.60
CCC(C(=O)Nc1cc(-c2cn3cc(OC)cnc3n2)ccc1C)c1ccccc1 (stereo not drawn) [FRF-02-137]	1.27
CCC(C(=O)Nc1cc(-c2cn3cc(C)cnc3n2)ccc1C)c1ccccc1 (stereo not drawn) [FRF-02-144-1, N-(2-Methyl-5-(6-methylimidazo[1,2-a]pyrimidin-2-yl)phenyl)-2-phenylbutanamide]	55.24
Cc1cnc2nc(-c3ccc(C)c(NC(=O)c4ccccc4Cl)c3)cn2c1 [FRF-02-144-2]	104.32
